Data published in the supplement of paper PMC10790783.

Tested on: MRC5-hT fibroblasts expressing HCMV UL38 (glucose-free medium)
Test: rescue of cell number (AUC of dose-response) relative to untreated glucose-free control; higher = stronger protection from glucose-starvation-induced cell death
Settings: glucose: 0 (glucose-free DMEM); 96 h; dose range 0.001-20, 10-point curve µM
Protocol: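 MRC5-hT fibroblasts stably expressing HCMV UL38 were seeded in 384-well plates, serum-starved for 24 h, switched to glucose-free DMEM, and pin-transferred with a metabolism-focused compound library as 10-point dose curves (1 nM to 20 µM; n=2). Nuclei were counted by Hoechst imaging 96 h after glucose withdrawal.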

SMILES | rescue of cell number
CC(=O)NC(CSC(=S)Nc1ccc(NC(=S)SCC(NC(C)=O)C(=O)O)cc1)C(=O)O (stereo not given) [2-AAPA hydrate] | -9.91%
CN1CCN(C(=O)c2ccc(-c3ccc4c(C=O)c(O)ccc4c3)s2)CC1 [MKC3946] | -14.6%
Nc1nc(Cl)nc2c1ncn2[C@H]1C[C@H](O)[C@@H](CO)O1 [Cladribine] | -12.9%
N#CC(CCCN1CCN(/N=C/c2cccnc2)CC1)(c1ccccc1)c1ccccc1 | 99.9%
Clc1ccc(C(c2ccccc2Cl)C(Cl)Cl)cc1 (stereo not given) [Mitotane] | 9.97%
O=C(O)CCCCC(CCSCc1ccccc1)SCc1ccccc1 (stereo not given) [CPI-613] | 28.9%
CC(=O)NC[C@H]1CN(c2ccc(N3CCOCC3)c(F)c2)C(=O)O1 [Linezolid] | -6.21%
Cc1ccc(C(=O)c2cc(O)c(O)c([N+](=O)[O-])c2)cc1 [Tolcapone] | 37.3%
CCOC(=O)N1c2ccc(C(F)(F)F)cc2[C@@H](N(Cc2cc(C(F)(F)F)cc(C(F)(F)F)c2)C(=O)OC)C[C@H]1CC [Torcetrapib] | -13.1%
O=C(O)C(=O)CBr [Bromopyruvic_acid] | 134%
[N-]=[N+]=CC(=O)OC[C@H](N)C(=O)O [Azaserine] | -20.4%
O=C(CCCCCCCn1cc(-c2cccnc2)nn1)Nc1ccccc1-c1ccccc1 [GPP_78] | 20.3%
O=c1c2ccccc2[se]n1-c1ccccc1 [Ebselen] | -18.8%
CCOC(=O)[C@@H](N)CCC(=O)N[C@@H](CSCc1ccccc1)C(=O)N[C@@H](C(=O)OCC)c1ccccc1 [Telintra] | 16.7%
CC[n+]1c(-c2ccccc2)c2cc(N)ccc2c2ccc(N)cc21 [Ethidium_Bromide] | 97.6%
O=C(Cc1cccc(OC(F)(F)F)c1)Nc1ccc(CCCCc2nnc(NC(=O)Cc3ccccn3)s2)nn1 [CB-839] | 38.5%
Oc1ccc(/C=C/c2cc(O)cc(O)c2)cc1 [Resveratrol] | -35.9%
CCCCCCCCCCC[C@@H](C[C@@H]1OC(=O)[C@H]1CCCCCC)OC(=O)[C@H](CC(C)C)NC=O [Orlistat] | -10.4%
N#CSc1cc(SC#N)c(N)nc1N [PR-619] | -9.68%
OCC(CO)N[C@H]1C[C@](O)(CO)[C@@H](O)[C@H](O)[C@H]1O [Voglibose] | -36.2%
CCOc1ccc(Cc2cc([C@@H]3O[C@H](CO)[C@@H](O)[C@H](O)[C@H]3O)ccc2Cl)cc1 [Dapagliflozin] | -33.4%
N=C(N)NC(=N)NCCc1ccccc1 [Phenformin] | -11.3%
C=C(C)[C@H]1Cc2c(ccc3c2O[C@@H]2COc4cc(OC)c(OC)cc4[C@@H]2C3=O)O1 [Rotenone] | 13.7%
NC(=O)NO [Hydroxyurea] | 61.6%
NC(=O)c1[nH]nc([C@@H]2O[C@H](CO)[C@@H](O)[C@H]2O)c1O [Pyrazofurin] | 26.5%

SMILES | rescue of cell number
CC(=O)Oc1ccccc1C(=O)O [Aspirin] | 25.2%
O=C(N[C@H](CO)[C@H](O)c1ccc([N+](=O)[O-])cc1)C(Cl)Cl [Chloramphenicol] | -10.7%
CN(N=O)C(=O)N[C@@H](C=O)[C@@H](O)[C@H](O)[C@H](O)CO [Streptozocin] | 33.4%
N[C@H](C(=O)O)[C@@H]1CC(Cl)=NO1 [Acivicin] | -32.4%
C/C=C(/C)C(=O)O[C@H]1C(C)=C2[C@H]([C@@H]1OC(=O)CCCCCCC)[C@@](C)(OC(C)=O)C[C@H](OC(=O)CCC)[C@@]1(O)[C@H]2OC(=O)[C@@]1(C)O [Thapsigargin] | 25.4%
CC[C@H](C)C(=O)O[C@H]1C[C@H](O)C=C2C=C[C@H](C)[C@H](CC[C@@H](O)C[C@@H](O)CC(=O)O)[C@H]21 [Pravastatin] | -35.3%
Cc1onc(C(=O)N2CCN(C(c3ccc(Cl)cc3)c3ccc(Cl)cc3)CC2)c1[N+](=O)[O-] [ML-210] | -2.73%
NS(=O)(=O)c1ccc(NC(=O)Nc2ccc(F)cc2)cc1 [U_104] | -34.7%
NC(=O)c1ncn([C@@H]2O[C@H](CO)[C@@H](O)[C@H]2O)c1O [Mizoribine] | -26.6%
COC(=O)c1ccc([C@H]2c3[nH]c4ccccc4c3C[C@H](C(=O)OC)N2C(=O)CCl)cc1 [1S,3R-RSL3] | 35.2%
CC(C)(C)NC(=O)[C@H]1CC[C@H]2[C@@H]3CC[C@H]4NC(=O)C=C[C@]4(C)[C@H]3CC[C@]12C [Finasteride] | -38.3%
CC(=O)O[C@H]1C(=O)[C@@]2(C)[C@H]([C@H](OC(=O)c3ccccc3)[C@]3(O)C[C@H](OC(=O)[C@H](O)[C@@H](NC(=O)c4ccccc4)c4ccccc4)C(C)=C1C3(C)C)[C@]1(OC(C)=O)CO[C@@H]1C[C@@H]2O [Taxol] | 21.5%
CCCCC[C@H](O)CC(=O)CCc1ccc(O)c(OC)c1 [[6]-Gingerol] | -29.7%
O=C(O)[C@@]1(CCCCCCOc2ccc(Cl)cc2)CO1 [(R)_(+)_Etomoxir_sodium_salt] | 17.7%
COc1c(O)cc2oc(-c3ccc(O)cc3)cc(=O)c2c1O [Hispidulin] | 145%
O=S(=O)(O)CCSSCCS(=O)(=O)O [Dimesna] | -37.8%
O=C(C1CC1)N1CC[C@@H](Cc2n[nH]c(=O)n2-c2ccc(-c3ccc4occc4c3)cc2)C1 | 117%
O=c1cc(-c2ccc(O)cc2)oc2cc(O)cc(O)c12 [Apigenin] | 58%
CNCCC(Oc1ccc(C(F)(F)F)cc1)c1ccccc1 (stereo not given) [Fluoxetine] | 47%
CC(C)(C(=O)c1cccnc1)c1cccnc1 [Metyrapone] | 87.6%
CC[C@@H]1/C=C/C=C/C[C@H](C)[C@H](O)[C@](C)(O)C(=O)[C@H](C)[C@@H](O)[C@H](C)C(=O)[C@H](C)[C@@H](O)[C@H](C)/C=C/C(=O)O[C@H]2[C@@H](C)[C@@H](CC1)O[C@@]1(CC[C@@H](C)[C@@H](C[C@H](C)O)O1)[C@@H]2C [Oligomycin_A] | 40.6%
COc1ccc(C(CN(C)C)C2(O)CCCCC2)cc1 (stereo not given) [Venlafaxine] | 6.28%
CCOC(=O)c1sc(NC(=O)c2ccco2)c(SC#N)c1C [CBR 5884] | 88%
Nc1ccn([C@@H]2C=C(CO)[C@@H](O)[C@H]2O)c(=O)n1 [Cyclopentenyl_cytosine] | 84.2%
O=C(/C=C/c1cccnc1)NCCCCC1CCN(C(=O)c2ccccc2)CC1 [FK_866] | 26.9%

SMILES | rescue of cell number
COc1ccc(N(C(=O)CCl)C(C(=O)NCCc2ccccc2)c2cccs2)cc1Cl (stereo not given) [ML-162] | 15.3%
CNc1ccc(C(=O)Oc2cc(O/N=[N+](\[O-])N(C)C)c([N+](=O)[O-])cc2[N+](=O)[O-])cc1 [PABA_NO] | -16.1%
Cc1c(O)c(=O)ccn1C [Deferiprone] | 25.4%
O[C@H]1[C@H](O)[C@@H](O)CN2CC[C@H](O)[C@H]12 [Castanospermine] | -30.6%
c1ccc2c(c1)[I+]c1ccccc1-2 [Diphenyleneiodonium_chloride] | 22.9%
O=C(O)c1cc(/N=N/c2ccc(S(=O)(=O)Nc3ccccn3)cc2)ccc1O [Sulfasalazine] | 87.4%
CC1=C(/C=C/C(C)=C/C=C/C(C)=C/C(=O)O)C(C)(C)CCC1 [Tretinoin] | 10%
O=C(O)c1ccc2cc(-c3ccc(O)c(C45CC6CC(CC(C6)C4)C5)c3)ccc2c1 [CD_437] | 25.4%
COP(=O)(CCC(N)C(=O)O)Oc1cccc(CC(=O)O)c1 (stereo not given) [GGsTop] | -24%
O=C(Nc1cccc(C(F)(F)F)c1)Nc1cc(S(=O)(=O)NC2CC2)ccc1-c1ccsc1 [AGI_6780] | -23.4%
O=[N+]([O-])c1ccc(O)c([N+](=O)[O-])c1 [2_4_Dinitrophenol] | 16.9%
N#Cc1ccnc(N2C(=O)CC[C@H]2C(=O)N(c2cncc(F)c2)[C@H](C(=O)NC2CC(F)(F)C2)c2ccccc2Cl)c1 [AG-120] | -8.45%
NC(=O)c1ccc(N)nc1 [6_Aminonicotinamide] | 32.1%
Cc1oncc1C(=O)Nc1ccc(C(F)(F)F)cc1 [Leflunomide] | 9.81%
COc1cc2c(cc1O)CC[C@@H]1[C@@H]2CC[C@]2(C)[C@@H](O)CC[C@@H]12 [2_Methoxyestradiol] | 22.8%
Cc1nccn1-c1ccc(Sc2cccc(C3(C(N)=O)CCOCC3)c2)cc1 | 13%
CCCCCCCCCCCCCCOc1ccc(C(=O)O)o1 [TOFA] | 48.9%
OC[C@H]1O[C@@H](n2cnc3c2N=CNC[C@H]3O)C[C@@H]1O [Pentostatin] | -17.8%
Cc1ccc(-c2c(-c3nn(C)c4ncnc(N5CC[C@H](N6CCCCC6)C5)c34)cnn2C)cc1 | 45.6%
CC1(C)CCC(c2ccc(Cl)cc2)=C(CN2CCN(c3ccc(C(=O)NS(=O)(=O)c4ccc(N[C@H](CCN5CCOCC5)CSc5ccccc5)c(S(=O)(=O)C(F)(F)F)c4)cc3)CC2)C1 [ABT_263] | 33.6%
COc1cc(O)c(CC=C(C)C)c(O)c1C(=O)/C=C/c1ccc(O)cc1 [Xanthohumol] | 15.1%
O=C(Nc1ccccc1)Nc1ccc(-c2ccc(C(=O)[C@@H]3CCC[C@H]3C(=O)O)cc2)cc1 | -36.5%
CCc1ccc(Cc2ccc3c(c2)[C@]2(OC3)O[C@H](CO)[C@@H](O)[C@H](O)[C@H]2O)cc1 [Tofogliflozin hydrate] | -27.9%
CC(=O)OC[C@H]1O[C@@H]([S-])[C@H](OC(C)=O)[C@@H](OC(C)=O)[C@@H]1OC(C)=O.CCP(CC)CC.[Au+] [Auranofin] | -0.594%
C[C@H]1O[C@@H](O[C@H]2[C@@H](O)C[C@H](O[C@H]3[C@@H](O)C[C@H](O[C@H]4CC[C@@]5(C)[C@H](CC[C@@H]6[C@@H]5CC[C@]5(C)[C@@H](C7=CC(=O)OC7)CC[C@]65O)C4)O[C@@H]3C)O[C@@H]2C)C[C@H](O)[C@@H]1O [Digitoxin] | 23.7%
